Patent publication US20060069132A1, “Azolecarboxamide herbicides” (priority 2004, published 2006)

What was measured:
barnyardgrass [1] = experiment: Test A pre-/postemergence herbicide test; type: in vivo, Echinochloa crus-galli
Outline: (§1)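 Visual injury rating on a 0–100 scale (0 no effect, 100 complete control) versus untreated controls, about ten days after treatment in greenhouse. Pre: directed soil spray onto seeded sandy loam. Post: spray to runoff on plants 2–10 cm tall at one- to two-leaf stage.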

large crabgrass [2] = experiment: Test A pre-/postemergence herbicide test; type: in vivo, Digitaria sanguinalis
Outline: as §1

giant foxtail [3] = experiment: Test A pre-/postemergence herbicide test; type: in vivo, Setaria faberi
Outline: as §1

morningglory [4] = experiment: Test A pre-/postemergence herbicide test; type: in vivo, Ipomoea spp.
Outline: as §1

redroot pigweed = experiment: Test A pre-/postemergence herbicide test; type: in vivo, Amaranthus retroflexus
Outline: as §1

velvetleaf [5] = experiment: Test A pre-/postemergence herbicide test; type: in vivo, Abutilon theophrasti
Outline: as §1

barnyardgrass [6] = experiment: Test B pre-/postemergence herbicide test; type: in vivo, Echinochloa crus-galli; conditions: for Plant response rating, Barnyardgrass: preemergence; for Barnyardgrass plant response rating: postemergence, visual rating, scale 0 (no effect) to 100 (complete control)
Outline: (§2)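 Herbicidal effect was judged by eye on a 0–100 scale after plants stood 13 to 15 days in the greenhouse following pre- or postemergence treatment with surfactant-containing formulations.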

Surinam grass = experiment: Test B pre-/postemergence herbicide test; type: in vivo, Urochloa decumbens; conditions: for Plant response rating, Surinam Grass: preemergence; for Surinam Grass plant response rating: postemergence, visual rating, scale 0 (no effect) to 100 (complete control)
Outline: (§3)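 Seeds were planted and treated preemergence with compounds formulated in a non-phytotoxic solvent mixture containing surfactant, while plants at the 1- to 4-leaf stage (2 to 18 cm) received postemergence sprays. Flooded paddy plants were grown to the 2-leaf stage. After 13 to 15 days in a greenhouse, injury was visually rated 0–100 against untreated controls.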

cocklebur = experiment: Test B pre-/postemergence herbicide test; type: in vivo, Xanthium strumarium; conditions: for Plant response rating, Cocklebur: preemergence; for Cocklebur plant response rating: postemergence, visual rating, scale 0 (no effect) to 100 (complete control)
Outline: as §2

corn = experiment: Test B pre-/postemergence herbicide test; type: in vivo, Zea mays; conditions: for Plant response rating, Corn: preemergence; for Corn plant response rating: postemergence, visual rating, scale 0 (no effect) to 100 (complete control)
Outline: as §3

large crabgrass [7] = experiment: Test B pre-/postemergence herbicide test; type: in vivo, Digitaria sanguinalis; conditions: for Plant response rating, Crabgrass, Large: preemergence; for Crabgrass, Large plant response rating: postemergence, visual rating, scale 0 (no effect) to 100 (complete control)
Outline: as §3

giant foxtail [8] = experiment: Test B pre-/postemergence herbicide test; type: in vivo, Setaria faberi; conditions: for Plant response rating, Foxtail, Giant: preemergence; for Foxtail, Giant plant response rating: postemergence, visual rating, scale 0 (no effect) to 100 (complete control)
Outline: as §3

lambsquarters = experiment: Test B pre-/postemergence herbicide test; type: in vivo, Chenopodium album; conditions: for Plant response rating, Lambsquarters: preemergence; for Lambsquarters plant response rating: postemergence, visual rating, scale 0 (no effect) to 100 (complete control)
Outline: as §3

morningglory [9] = experiment: Test B pre-/postemergence herbicide test; type: in vivo, Ipomoea coccinea; conditions: for Plant response rating, Morningglory: preemergence; for Morningglory plant response rating: postemergence, visual rating, scale 0 (no effect) to 100 (complete control)
Outline: as §2

pigweed = experiment: Test B pre-/postemergence herbicide test; type: in vivo, Amaranthus retroflexus; conditions: for Plant response rating, Pigweed: preemergence; for Pigweed plant response rating: postemergence, visual rating, scale 0 (no effect) to 100 (complete control)
Outline: as §3

rice [10] = experiment: Test B pre-/postemergence herbicide test; type: in vivo, Oryza sativa; conditions: preemergence
Outline: as §3

velvetleaf [11] = experiment: Test B pre-/postemergence herbicide test; type: in vivo, Abutilon theophrasti; conditions: for Plant response rating, Velvetleaf: preemergence; for Velvetleaf plant response rating: postemergence, visual rating, scale 0 (no effect) to 100 (complete control)
Outline: as §3

blackgrass = experiment: Test B postemergence herbicide test; type: in vivo, Alopecurus myosuroides; conditions: postemergence, visual rating, scale 0 (no effect) to 100 (complete control)
Outline: (§4)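 Treated at 2-leaf (paddy) or 1–4-leaf, 2–18 cm (postemergence); greenhouse 13–15 d; visual score vs control, 0 none to 100 complete control; dash = not tested.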

wheat = experiment: Test B postemergence herbicide test; type: in vivo, Triticum aestivum; parameters: key to Wheat plant response rating: 0 = no effect, 100 = complete control; conditions: postemergence, 500 g ai/ha; visual rating, scale 0 (no effect) to 100 (complete control)
Outline: (§5)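 Plants grow to 1- to 4-leaf stage (2–18 cm) for postemergence spraying, or to 2-leaf stage for the paddy test. Formulated compound is applied. Greenhouse holding lasts 13–15 days. Response is scored visually relative to controls, 0 no effect to 100 complete control; a dash means no result.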

wild oat = experiment: Test B postemergence herbicide test; type: in vivo, Avena fatua; conditions: postemergence, visual rating, scale 0 (no effect) to 100 (complete control)
Outline: as §5

rice [12] = experiment: Test B flooded paddy test; type: in vivo, Oryza sativa; conditions: 1000 g ai/ha, visual rating, scale 0 to 100 (0 no effect, 100 complete control), 13 to 15 days
Outline: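 Visual ratings, 0 (no effect) to 100 (complete control), made versus controls after 13–15 d greenhouse. Paddy plants treated at 2-leaf stage; postemergence plants at 1- to 4-leaf stage, 2–18 cm tall.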

[13] = tested on: small flower umbrella sedge; experiment: Test B flooded paddy test; type: in vivo, Cyperus difformis; conditions: 1000 g ai/ha, visual rating, scale 0 to 100 (0 no effect, 100 complete control), 13 to 15 days
Outline: as §4

ducksalad = experiment: Test B flooded paddy test; type: in vivo, Heteranthera limosa; conditions: 1000 g ai/ha, visual rating, scale 0 to 100 (0 no effect, 100 complete control), 13 to 15 days
Outline: as §4

barnyardgrass [14] = experiment: Test B flooded paddy test; type: in vivo, Echinochloa crus-galli; conditions: 1000 g ai/ha, visual rating, scale 0 to 100 (0 no effect, 100 complete control), 13 to 15 days
Outline: as §4

[15] = Postemergence, 500 g ai/ha, 0 to 100 scale, 0 no effect, 100 complete control
[16] = Postemergence, 2000 g ai/ha, 0 to 100 scale, 0 no effect, 100 complete control
[17] = Preemergence, 500 g ai/ha, visual rating, 0 to 100 scale (0 no effect, 100 complete control)
[18] = Preemergence, 2000 g ai/ha, visual rating, 0 to 100 scale (0 no effect, 100 complete control)
[19] = preemergence, 500 g ai/ha, visual injury, 0 to 100 scale (0 no effect, 100 complete control)
[20] = 500 g ai/ha, visual rating 0-100, 0 no effect, 100 complete control
[21] = 125 g ai/ha, 0 to 100 scale, 0 is no effect, 100 is complete control

## CCn1nc(C(C)(C)C)cc1C(=O)Nc1cc(C(=O)NC(C)(C)C)ccn1 [Compound 154]
Barnyardgrass [1]; [15]
  Barnyardgrass plant response rating: 50
Barnyardgrass [1]; [16]
  Plant response rating, Barnyardgrass: 90
Barnyardgrass [1]; [17]
  Barnyardgrass plant response rating: 30
Barnyardgrass [1]; [18]
  Barnyardgrass plant response rating: 95
Large crabgrass [2]; [15]
  Crabgrass, Large plant response rating: 20
Large crabgrass [2]; [16]
  Plant response rating, Crabgrass, Large: 30
Large crabgrass [2]; [17]
  Crabgrass, Large plant response rating: 25
Large crabgrass [2]; [18]
  Crabgrass, Large plant response rating: 85
Giant foxtail [3]; [15]
  Foxtail, Giant plant response rating: 20
Giant foxtail [3]; [16]
  Plant response rating, Foxtail, Giant: 20
Giant foxtail [3]; [17]
  Foxtail, Giant plant response rating: 20
Giant foxtail [3]; [18]
  Foxtail, Giant plant response rating: 70
Morningglory [4]; [15]
  Morningglory plant response rating: 20
Morningglory [4]; [16]
  Plant response rating, Morningglory: 40
Morningglory [4]; [17]
  Morningglory plant response rating: 10
Morningglory [4]; [18]
  Morningglory plant response rating: 30
Redroot pigweed; [15]
  Pigweed plant response rating: 90
Redroot pigweed; [16]
  Plant response rating, Pigweed: 100
Redroot pigweed; [18]
  Pigweed plant response rating: 100
Redroot pigweed; [19]
  Pigweed plant response rating: 85
Velvetleaf [5]; [15]
  Velvetleaf plant response rating: 10
Velvetleaf [5]; [16]
  Plant response rating, Velvetleaf: 30
Velvetleaf [5]; [18]
  Velvetleaf plant response rating: 60
Velvetleaf [5]; [19]
  Velvetleaf plant response rating: 15
Barnyardgrass [6]; [20]
  Plant response rating, Barnyardgrass: 80
Barnyardgrass [6]; 125 g ai/ha
  Barnyardgrass plant response rating: 20
Barnyardgrass [6]; 500 g ai/ha
  Barnyardgrass plant response rating: 50
Barnyardgrass [6]; [21]
  Plant response rating, Barnyardgrass: 10
Surinam grass; [20]
  Plant response rating, Surinam Grass: 10
Surinam grass; 125 g ai/ha
  Surinam Grass plant response rating: 30
Surinam grass; 500 g ai/ha
  Surinam Grass plant response rating: 60
Surinam grass; [21]
  Plant response rating, Surinam Grass: 0
cocklebur; [20]
  Plant response rating, Cocklebur: 10
cocklebur; 125 g ai/ha
  Cocklebur plant response rating: 60
cocklebur; 500 g ai/ha
  Cocklebur plant response rating: 70
cocklebur; [21]
  Plant response rating, Cocklebur: 0
corn; [20]
  Plant response rating, Corn: 0
corn; 125 g ai/ha
  Corn plant response rating: 10
corn; 500 g ai/ha
  Corn plant response rating: 20
corn; [21]
  Plant response rating, Corn: 0
Large crabgrass [7]; [20]
  Plant response rating, Crabgrass, Large: 80
Large crabgrass [7]; 125 g ai/ha
  Crabgrass, Large plant response rating: 10
Large crabgrass [7]; 500 g ai/ha
  Crabgrass, Large plant response rating: 20
Large crabgrass [7]; [21]
  Plant response rating, Crabgrass, Large: 50
Giant foxtail [8]; [20]
  Plant response rating, Foxtail, Giant: 30
Giant foxtail [8]; 125 g ai/ha
  Foxtail, Giant plant response rating: 10
Giant foxtail [8]; 500 g ai/ha
  Foxtail, Giant plant response rating: 20
Giant foxtail [8]; [21]
  Plant response rating, Foxtail, Giant: 0
lambsquarters; [20]
  Plant response rating, Lambsquarters: 90
lambsquarters; 125 g ai/ha
  Lambsquarters plant response rating: 80
lambsquarters; 500 g ai/ha
  Lambsquarters plant response rating: 90
lambsquarters; [21]
  Plant response rating, Lambsquarters: 70
Morningglory [9]; [20]
  Plant response rating, Morningglory: 0
Morningglory [9]; 125 g ai/ha
  Morningglory plant response rating: 60
Morningglory [9]; 500 g ai/ha
  Morningglory plant response rating: 70
Morningglory [9]; [21]
  Plant response rating, Morningglory: 0
pigweed; [20]
  Plant response rating, Pigweed: 100
pigweed; 125 g ai/ha
  Pigweed plant response rating: 20
pigweed; 500 g ai/ha
  Pigweed plant response rating: 80
pigweed; [21]
  Plant response rating, Pigweed: 90
Rice [10]; [20]
  Plant response rating, Rice: 0
Rice [10]; [21]
  Plant response rating, Rice: 0
Velvetleaf [11]; [20]
  Plant response rating, Velvetleaf: 70
Velvetleaf [11]; 125 g ai/ha
  Velvetleaf plant response rating: 20
Velvetleaf [11]; 500 g ai/ha
  Velvetleaf plant response rating: 60
Velvetleaf [11]; [21]
  Plant response rating, Velvetleaf: 70
blackgrass; 125 g ai/ha
  Blackgrass plant response rating: 10
blackgrass; 500 g ai/ha
  Blackgrass plant response rating: 10
wheat
  Wheat plant response rating: 10
Wild oat; 125 g ai/ha
  Oat, Wild plant response rating: 10
Wild oat; 500 g ai/ha
  Oat, Wild plant response rating: 30
Rice [12]
  Rice plant response rating: 20
[13]
  Sedge, Umbrella plant response rating: 20
ducksalad
  Ducksalad plant response rating: 80
Barnyardgrass [14]
  Barnyardgrass plant response rating: 50
